{"source": "patent US20260256133A1", "about": "“AN EMULSIFIABLE CONCENTRATE HAVING A (SUBSTITUTED) BENZALDEHYDE-BASED SOLVENT SYSTEM” (BASF SE, priority 2022, published 2026)", "key": {"Soya plants": {"test_system": "Soya plants", "experiment": "Phytotoxicity determination on soya", "assay_type": "in vivo", "details": "200 L/ha of 1% w/w emulsion (EC 90% w/w solvent, 10% w/w emulsifier), after 14 days", "procedure": "Soya plants grown under standard greenhouse conditions in the growth stage 13 were treated with aqueous emulsions in a spray cabin. The resulting plant spray dosage represented an application rate of 200 L/ha of 1% w/w emulsion, corresponding to the application of 2 L/ha of the emulsifiable concentrate. […] The experimental period lasted 14 days, during which time the Soya plants were given optimum watering, nutrients, and light.\nAn assessment of 1 to 10% phytotoxicity is the limit of acceptable plant damage by farmers."}, "[1]": {"experiment": "Water solubility of the solvent (method based on CIPAC MT157.1 and OECD 105)", "assay_type": "physicochemical", "details": "solvent in water, visual assessment of undissolved solvent", "procedure": "The water solubility of the solvent was determined according to a method based on CIPAC MT157.1 and OECD 105 via the visual assessment of undissolved solvent in water after vigorous mixing and standing. Herein, various amounts of solvent and water were mixed with vigorous shaking in a glass-stoppered graduated cylinder or separating funnel, followed by standing for at least 30 min to enable separation. […] This method can be repeated with various amounts of solvent and water to enable the determination of the water-solubility of the solvent."}}}
{"molecule": "CCCCCCCCCC(=O)N(C)C", "note": "[Dimethyl decanamide, dimethyl decanamide]", "values": [{"measurement": "phytotoxicity (visual, scale 0% to 100%)", "setting": "Soya plants", "result": 50, "unit": "%"}]}
{"molecule": "COc1ccc(C=O)cc1", "note": "[4-anisaldehyde]", "values": [{"measurement": "water solubility", "setting": "[1]", "result": 0.20, "unit": "% w/w"}, {"measurement": "phytotoxicity (visual, scale 0% to 100%)", "setting": "Soya plants", "result": 0, "unit": "%"}]}
{"molecule": "CCCCC(CC)COC(=O)C(C)O", "note": "(stereo not shown) [2-Ethyl hexyl lactate, 2-Ethylhexyl Lactate]", "values": [{"measurement": "phytotoxicity (visual, scale 0% to 100%)", "setting": "Soya plants", "result": 30, "unit": "%"}]}
